Source: BigSolDB 2.1

O=C(Nc1ccccc1-c1ccc(Cl)cc1)c1cccnc1Cl
solubility (mole fraction)
Settings | 288.15 K | 293.15 K | 298.15 K | 303.15 K | 308.15 K | 313.15 K
in ethanol | 0.00163 | 0.00194 | 0.0023 | 0.00282 | 0.00346 | 0.00428
in ethyl acetate | 0.0076 | 0.00879 | 0.0102 | 0.0117 | 0.0141 | 0.0168
in isopropanol | 0.000816 | 0.000983 | 0.00124 | 0.00162 | 0.002 | 0.00251
in methanol | 0.00186 | 0.0022 | 0.0026 | 0.00315 | 0.00394 | 0.0047
in n-propyl acetate | 0.00718 | 0.00822 | 0.00943 | 0.0112 | 0.0135 | 0.016
